From patent US6653074B1, “Methods for identifying agents which affect cellular morphology, locomotion and death” (Fox Chase Cancer Center, priority 1995, dated 2003)

How the values were obtained:
MCF-7 cells = experiment: Induction of apoptosis by TNF-α in MCF-7 cells, Western blot of caspase cleavage products and cell death; assay type: cell-based, human; conditions: 48 hours
Protocol: Induction of apoptosis. MCF-7 cells were plated and grown for 48 hours reaching a cell density of 70% prior to TNF-α addition. Media was replaced with fresh media supplemented with 100 ng/ml TNF-α. TNF-α treatment of stable cell lines was carried out by plating, cells directly into fresh DMEM plus 10% fetal bovine serum, with or without addition of tetracycline as indicated, containing 100 ng/ml TNF-α. Cells floating in the media were collected by centrifugation (1,200 rpm, 5 min) and extracted in combination with attached cells at the time points indicated, as described below. WeHI 231 cells were plated at a density of 5×10^4 cells/ml and treated with 1 μg/ml of α-IgM antibodies in complete media. Cells were collected by centrifugation and lysed as stated below.
Lysates were made as previously described (39; 41) in A-PTY buffer (50 mM HEPES, pH 7.5, 50 mM NaCl, 5 mM EDTA, 1% Triton X-100, 50 mM NaF, 10 mM Na4P2O7 and supplemented each extraction with 1 mM phenylmethylsulfonylfluoride, 0.01 mg/ml aprotinin and 0.01 mg/ml leupeptin). For adherent cultures, floating cells were pooled with the adherent cells prior to lysis. The cell pellet was then lysed in combination with lysates from the attached cells. […] Detection was via chemiluminescence as described (Law et al. (1996) Mol. Cell. Biol. 16: 3327-3337).

caspase 3 = experiment: Caspase activity assay: Ac-DEVD-pNA cleavage by lysates of HEF1-expressing MCF-7 cells; assay type: biochemical, human; conditions: z-DEVD-fmk 0.5 μM; Ac-DEVD-pNA 250 μM; lysates of induced HEF1 cells; 24 hr; 405 nm
Protocol: HEF1 expression and caspase activity. Stable cell lines containing parental tetracycline-regulatable vector with or without the full length HEF1 cDNA were generated in MCF-7 cells (Example 2). These were plated at a density of approximately 1×10^6 cells per 100 mm plate into fresh DMEM plus 10% fetal bovine serum in the absence of tetracycline and other selective antibiotics (induced) or in the presence of 1 μg/ml tetracycline (uninduced). Floating and attached cells were combined and extracted in caspase assay buffer (50 mM HEPES, pH 7.4, 100 mM NaCl, 0.1% CHAPS, 10 mM DTT, 1 mM EDTA, and 10% glycerol). Protein content of extracts was determined using the Bio-Rad protein assay as per the manufacturer's instructions (Bio-Rad, Hercules, Calif.). Caspase assays were performed as previously described (DiPietrantonio et al. (1999) Biochem Biophys Res Commun 255:477-82). […] Triplicate samples were incubated at room temperature and the release of pNA product was monitored at 405 nm a microtiter plate reader (Multiskan Plus, Labsystems, Helsinki. Finland). Initial readings were taken at the start of the incubation (T0) and final readings were taken at the completion of the reaction at 24 hr (T1). The change in absorbance over time was determined by subtracting T0 from T1 for each sample.

[1] = target: the molecule itself; experiment: yeast two-hybrid analysis
Source text: EGY48 yeast (Gyuris et al., 1993, supra) were transformed by standard methods with plasmids expressing LexA-fusions, activation-domain fusions, or both, together with the LexA operator-LacZ reporter SH18-34 (Gyuris et al., 1993, supra). For all fusion proteins, synthesis of a fusion protein of the correct length in yeast was confirmed by Western blot assays of yeast extracts (Samson et al., Cell 57: 1045–1052, 1989) using polyclonal antiserum specific for LexA (Brent and Ptashne, Nature 312: 612–615, 1984) or for hemagglutinin (Babco, Inc), as appropriate. Activation of the LacZ reporter was determined as previously described (Brent and Ptashne, Cell 43: 729–736, 1985). Beta-galactosidase assays were performed on three independent colonies, on three separate occasions, and values for particular plasmid combinations varied less than 25%. Activation of the LEU2 reporter was determined by observing the colony forming ability of yeast plated on complete minimal medium lacking leucine. The LexA-PRD/HD expressing plasmid has been described (Golemis and Brent, Mol. Cell Biol. 12: 3006–3014, 1992).
The possible functions for the novel carboxy-terminal domains were investigated further using two-hybrid analysis.

TNF-α
cell rounding and death, gross morphology (MCF-7 cells; TNF-α alone, uninduced cells): low level of cell rounding and death | cell death (MCF-7 cells; TNF-α together with HEF1 induction): ~100% | PARP cleavage (MCF-7 cells; uninduced HEF1 cells and vector control MCF-7 cells, TNF-α): detected

z-DEVD-fmk
activity towards the caspase 3 substrate Ac-DEVD-pNA in HEF1 expressing cells (caspase 3): potently blocked

B1: HEF1 carboxy-terminal domain (other)
chain: IMKQNKMQLEHHQLSQFQLLEQEITKPVENDISKWKPSQSLPTTNSGVSAQDRQLLCFYYDQCETHFISLLNAIDALFSCVSSAQPPRIFVAHSKFVILSAHKLVFIGDTLTRQVTAQDIRNKVMNSSNQLCEQLKTIVMATKMAALHYPSTTALQEMVHQVTDLSRNAQLFKRSLLEMATF
notes: Tested as a two-hybrid fusion; also called C-terminal effector domain; HEF1-Cterm182
binding result [1]: binds
